Some test systems named below: UACC-62 melanoma; UACC-257 melanoma; HCT-15 colon; NCI-H460 lung; A498 renal; RPMI-8226 leukemia; RXF 393 renal; T-47D breast.
Common to all, as to test: DTP human tumour cell line panel, 48 h

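Protocol summary: plate cells (96-well), add compound at 5 concentrations, incubate 48 h, interpolate endpoints linearly. TGI denotes the concentration required for complete inhibition of growth.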

As a reminder, the TGI is the concentration giving total growth inhibition. A high value points to lower sensitivity of the cells.

Consider `O=C(C(=C(I)I)c1ccccc1)c1ccccc1`, for which the TGI with UACC-62 melanoma was 53.4 µM; with UACC-257 melanoma, above 100 µM; in the test with HCT-15 colon, above 100 µM; in the test with NCI-H460 lung, above 100 µM; with A498 renal, 28.6 µM; in the test on RPMI-8226 leukemia, 45.5 µM.
With `O=C1CSC(c2c[nH]c3ccccc23)N1c1ccc(Cl)cc1Cl` (stereo not drawn), the TGI in the test with UACC-62 melanoma, with UACC-257 melanoma, in the test with HCT-15 colon, in the test with NCI-H460 lung, with RPMI-8226 leukemia and with RXF 393 renal was above 100 µM throughout. The TGI with T-47D breast is above 100 µM.
As for `CN(C)/N=N/c1nc2c(c(=O)n(C)c(=O)n2C)n1CC1CO1` (stereo not drawn), the concentration for total growth inhibition (TGI) with UACC-62 melanoma was 24.8 µM; in the test with UACC-257 melanoma it was 43.9 µM; with HCT-15 colon it was 29.1 µM; with NCI-H460 lung it was 21.7 µM; with RPMI-8226 leukemia it was 93.1 µM; in the test on RXF 393 renal it was 15.8 µM. Moreover, the concentration for total growth inhibition (TGI) with T-47D breast is 80 µM.
Take `N#Cc1c(-c2ccc([N+](=O)[O-])cc2)c(C#N)c(=O)n(NS(=O)(=O)c2ccccc2)c1O`: the total growth inhibition concentration (TGI) in the test with UACC-62 melanoma, in the test on UACC-257 melanoma, with HCT-15 colon, in the test with NCI-H460 lung, with A498 renal and in the test on RPMI-8226 leukemia was above 100 µM throughout. Also, the TGI in the test on RXF 393 renal was above 100 µM.
For the molecule `Oc1ccccc1/C=N/N1C(=S)N(C23CC4CC(CC(C4)C2)C3)C(=Nc2ccccc2)C1=Nc1ccccc1`, the total growth inhibition concentration (TGI) in the test on UACC-62 melanoma, in the test with UACC-257 melanoma, with HCT-15 colon, with NCI-H460 lung, with RPMI-8226 leukemia and in the test on RXF 393 renal was above 100 µM throughout. In addition, the concentration for total growth inhibition (TGI) in the test on T-47D breast is above 100 µM.
Consider `CCn1ncc2c(=O)n3ncn(-c4ccc(Br)cc4)c3nc21`, for which the concentration for total growth inhibition (TGI) with UACC-62 melanoma, with UACC-257 melanoma, with HCT-15 colon, with A498 renal, in the test on RPMI-8226 leukemia and in the test on RXF 393 renal was above 100 µM in each case. This molecule also registered a TGI in the test on T-47D breast above 100 µM.
Take `O=C(c1ccco1)N(C(=O)N1CCC(c2ccccc2)CC1)c1ccccc1`: the concentration for total growth inhibition (TGI) in the test on UACC-62 melanoma was above 100 µM; in the test on UACC-257 melanoma, above 100 µM; in the test with HCT-15 colon it was above 100 µM; in the test with A498 renal, above 100 µM; in the test with RPMI-8226 leukemia it was 60 µM; in the test with RXF 393 renal, 90.9 µM. In the test with T-47D breast, this molecule yielded a concentration for total growth inhibition (TGI) of 64.2 µM.
On to `COc1ccc(C2C=C(c3ccc(C)cc3)N(c3ccc(OC)cc3[N+](=O)[O-])C3C(=O)OC(=O)C23)c(OC)c1` (stereo not drawn), for which the concentration for total growth inhibition (TGI) is above 100 µM in the test on UACC-62 melanoma; above 100 µM with UACC-257 melanoma; above 100 µM in the test on HCT-15 colon; above 100 µM with NCI-H460 lung; above 100 µM with A498 renal; 56.5 µM with RPMI-8226 leukemia.
Turning to `C=C(C)[C@H]1CC23C(=O)[C@@](C)(C[C@H]2C1(C)C)C(=O)C(C(=O)C(C)C)=C3O`, the concentration for total growth inhibition (TGI) in the test with UACC-62 melanoma stood at 29.8 µM; in the test with UACC-257 melanoma, 62.3 µM; in the test with HCT-15 colon, 33.1 µM; in the test on NCI-H460 lung, 45.3 µM; in the test on RPMI-8226 leukemia, 27.9 µM; in the test on RXF 393 renal it was 29 µM. The total growth inhibition concentration (TGI) in the test with T-47D breast was above 100 µM.
Consider `Cn1c(=O)cc(NNc2ccc(Cl)c(Cl)c2)[nH]c1=O`, for which the TGI in the test on UACC-62 melanoma was 16.8 µM; in the test on UACC-257 melanoma, 28.6 µM; in the test on HCT-15 colon it was 18.5 µM; in the test with NCI-H460 lung, 20.3 µM; with A498 renal, above 100 µM; in the test on RXF 393 renal it was 38.8 µM. Besides, in the test on T-47D breast, the TGI is 21.1 µM.
With `NCCCCNCCCN1CCOC1=O`, the concentration for total growth inhibition (TGI) in the test with UACC-62 melanoma, in the test on UACC-257 melanoma, in the test with HCT-15 colon, in the test on NCI-H460 lung, with A498 renal and in the test on RPMI-8226 leukemia was above 100 µM in each case. The molecule further came in with a TGI in the test on T-47D breast above 100 µM.
For the molecule `CC1(C)OCC(C2OC(C)(C)OC2[C@H]2O[C@@]3(O)[C@H]4[C@H](C=CC[C@@H]42)[C@@H](OCc2ccccc2)[C@H](OCc2ccccc2)[C@H]3OCc2ccccc2)O1` (stereo partly drawn), the TGI in the test with UACC-62 melanoma is above 100 µM; with UACC-257 melanoma it was above 100 µM; in the test with HCT-15 colon, above 100 µM; in the test on NCI-H460 lung, above 100 µM; in the test on A498 renal, above 100 µM; in the test on RXF 393 renal, 82.1 µM. Besides, in the test with T-47D breast, the concentration for total growth inhibition (TGI) is above 100 µM.
With `C=C1C[C@@H]2O[C@H]3[C@H]4[C@@H](C[C@@H](C)[C@@H](OC(C)=O)[C@H]42)[C@@H](C)CO[C@@]3(C)[C@H](OC(=O)CCCCCCC)CC1=O`, the TGI in the test with UACC-62 melanoma was determined as 32.1 µM; with UACC-257 melanoma, 30.7 µM; with HCT-15 colon, 28.9 µM; with NCI-H460 lung, 24.2 µM; with A498 renal, 32.5 µM; in the test on RPMI-8226 leukemia, 13.1 µM. Besides, in the test on T-47D breast, the TGI was 31.5 µM.
Regarding `C/C(=C\CSCC(N)C(=O)O)CC/C=C(\C)CNc1ccccc1` (stereo not drawn), the total growth inhibition concentration (TGI) with UACC-62 melanoma, in the test on UACC-257 melanoma, in the test with HCT-15 colon, in the test on NCI-H460 lung, in the test with RPMI-8226 leukemia and in the test on RXF 393 renal was above 100 µM each time. For the same molecule, the concentration for total growth inhibition (TGI) in the test on T-47D breast was above 100 µM.
`CCCCNC(=O)Cn1c2ccc(Br)cc2c2nc3ccccc3nc21`: the total growth inhibition concentration (TGI) in the test on UACC-62 melanoma, with UACC-257 melanoma, in the test on A498 renal, with RPMI-8226 leukemia, with RXF 393 renal and in the test with T-47D breast was above 100 µM throughout.
Consider `CC(=O)Oc1ccn2nc(C)c(Br)c2c1`, for which the total growth inhibition concentration (TGI) in the test with UACC-62 melanoma is above 100 µM; in the test with UACC-257 melanoma, 99.5 µM; in the test on HCT-15 colon, above 100 µM; in the test on NCI-H460 lung it was above 100 µM; in the test with A498 renal it was above 100 µM; with RXF 393 renal, above 100 µM. This molecule also showed a TGI in the test on T-47D breast above 100 µM.
Consider `CCOC(=O)/C=C/CCC(C)(C)COC(C)=O`, for which the TGI in the test with UACC-62 melanoma, in the test on UACC-257 melanoma, in the test on HCT-15 colon, with NCI-H460 lung, in the test on RPMI-8226 leukemia and in the test with RXF 393 renal was above 10 µM each time. In the test on T-47D breast, the TGI was above 10 µM.
For `NC(=O)c1ccc[n+](C2=C([O-])c3ccccc3C(=O)/C2=N\S(=O)(=O)c2ccccc2)c1`, the concentration for total growth inhibition (TGI) in the test with UACC-62 melanoma is 32.1 µM; in the test with UACC-257 melanoma, 27.7 µM; in the test with HCT-15 colon, 95.9 µM; in the test on NCI-H460 lung, 47.9 µM; with RPMI-8226 leukemia, above 100 µM; in the test on RXF 393 renal it was 29.5 µM. The TGI with T-47D breast stood at 53.6 µM.

Source of the values: PubChem BioAssay (NCI).
